{
  "source": "paper PMC3469775",
  "about": "(Journal of medicinal chemistry, 2012)",
  "molecular_target": "T1, human placental aromatase (Homo sapiens, UniProt P11511)",
  "T1 sequence (P11511 1-503)": "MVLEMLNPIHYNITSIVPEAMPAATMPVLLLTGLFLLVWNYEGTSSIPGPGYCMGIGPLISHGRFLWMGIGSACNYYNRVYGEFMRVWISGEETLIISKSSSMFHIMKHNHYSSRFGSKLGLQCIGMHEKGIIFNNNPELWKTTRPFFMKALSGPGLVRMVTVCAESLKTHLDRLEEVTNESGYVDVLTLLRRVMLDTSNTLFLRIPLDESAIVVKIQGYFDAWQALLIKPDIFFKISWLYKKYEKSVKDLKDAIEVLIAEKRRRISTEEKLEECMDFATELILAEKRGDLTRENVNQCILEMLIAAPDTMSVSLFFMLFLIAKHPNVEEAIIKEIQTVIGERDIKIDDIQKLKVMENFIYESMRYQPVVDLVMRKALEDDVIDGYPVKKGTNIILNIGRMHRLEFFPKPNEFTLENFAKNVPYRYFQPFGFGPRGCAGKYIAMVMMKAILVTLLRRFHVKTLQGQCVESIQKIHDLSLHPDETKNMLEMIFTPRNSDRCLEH",
  "test": "Inhibition of purified human placental aromatase",
  "type": "biochemical",
  "conditions": "for fold less potent than the AIs (IC50): compared with the AIs; for IC50 (in words): purified placental aromatase",
  "data": [
    {"compound": "CCO[C@@H]1C[C@@H]2[C@H](CC[C@]3(C)C(=O)CC[C@@H]23)[C@@]2(C)C=CC(=O)C=C12", "note": "[Compound 3, (6R,8R,9S,10R,13S,14S)-6-Ethoxy-10,13-dimethyl-7,8,9,10,11,12,13,14,15,16-decahydro-3H-cyclopenta[a]-phenanthrene-3,17(6H)-dione]", "values": [
      {"measurement": "fold less potent than the AIs (IC50)", "result": "about 1000 fold"},
      {"measurement": "IC50 (in words)", "result": "several micromolar"}
    ]},
    {"compound": "CO[C@@H]1C[C@@H]2[C@H](CC[C@]3(C)C(=O)CC[C@@H]23)[C@@]2(C)C=CC(=O)C=C12", "note": "[Compound 2, (6R,8R,9S,10R,13S,14S)-6-Methoxy-10,13-dimethyl-7,8,9,10,11,12,13,14,15,16-decahydro-3H-cyclopenta[a]-phenanthrene-3,17(6H)-dione]", "values": [
      {"measurement": "fold less potent than the AIs (IC50)", "result": "about 1000 fold"},
      {"measurement": "IC50 (in words)", "result": "several micromolar"}
    ]},
    {"compound": "CC#CCO[C@@H]1C[C@@H]2[C@H](CC[C@]3(C)C(=O)CC[C@@H]23)[C@@]2(C)C=CC(=O)C=C12", "note": "[Compound 4, (6R,8R,9S,10R,13S,14S)-6-(But-2-ynyloxy)-10,13-dimethyl-7,8,9,10,11,12,13,14,15,16-decahydro-3H-cyclopenta[a]-phenanthrene-3,17(6H)-dione]", "values": [
      {"measurement": "inhibition at 300 µM", "setting": "read-out: inhibition of the enzyme activity", "result": 93, "unit": "%"}
    ]}
  ]
}
